From publication PMC11607896 (Biotechnology for Biofuels and Bioproducts, 2024)
Values belong to the molecule of their own block, whether it stands above or below them.

Key:
Assay type in all cases: biochemical
PcCel7D [1] = target: T1, PcCel7D (Phanerodontia chrysosporium, UniProt Q7LIJ0); assay: PASC hydrolysis, reducing sugar; details: PASC 10 g/L, 0.2 µM enzyme, pH 5.0, 50 °C, 60 min; may be deactivation
T1 sequence (Q7LIJ0 19-510): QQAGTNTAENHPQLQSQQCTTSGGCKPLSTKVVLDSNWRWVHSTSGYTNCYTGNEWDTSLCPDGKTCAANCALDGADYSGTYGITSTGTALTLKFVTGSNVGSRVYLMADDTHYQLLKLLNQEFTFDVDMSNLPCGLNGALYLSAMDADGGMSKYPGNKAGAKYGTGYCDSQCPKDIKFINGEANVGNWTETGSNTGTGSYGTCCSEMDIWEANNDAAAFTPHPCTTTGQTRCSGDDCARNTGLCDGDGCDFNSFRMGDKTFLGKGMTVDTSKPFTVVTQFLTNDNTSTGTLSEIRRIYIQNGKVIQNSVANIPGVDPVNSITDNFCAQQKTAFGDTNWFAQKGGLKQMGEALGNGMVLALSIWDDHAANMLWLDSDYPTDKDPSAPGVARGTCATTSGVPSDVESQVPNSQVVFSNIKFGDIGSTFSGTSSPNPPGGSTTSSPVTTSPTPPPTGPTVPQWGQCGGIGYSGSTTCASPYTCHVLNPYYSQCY

PcCel7C [2] = target: T2, PcCel7C (Phanerodontia chrysosporium, UniProt P13860); assay: PASC hydrolysis, reducing sugar; details: PASC 10 g/L, 0.2 µM enzyme, pH 5.0, 50 °C, 60 min; may be deactivation
T2 sequence (P13860 19-516): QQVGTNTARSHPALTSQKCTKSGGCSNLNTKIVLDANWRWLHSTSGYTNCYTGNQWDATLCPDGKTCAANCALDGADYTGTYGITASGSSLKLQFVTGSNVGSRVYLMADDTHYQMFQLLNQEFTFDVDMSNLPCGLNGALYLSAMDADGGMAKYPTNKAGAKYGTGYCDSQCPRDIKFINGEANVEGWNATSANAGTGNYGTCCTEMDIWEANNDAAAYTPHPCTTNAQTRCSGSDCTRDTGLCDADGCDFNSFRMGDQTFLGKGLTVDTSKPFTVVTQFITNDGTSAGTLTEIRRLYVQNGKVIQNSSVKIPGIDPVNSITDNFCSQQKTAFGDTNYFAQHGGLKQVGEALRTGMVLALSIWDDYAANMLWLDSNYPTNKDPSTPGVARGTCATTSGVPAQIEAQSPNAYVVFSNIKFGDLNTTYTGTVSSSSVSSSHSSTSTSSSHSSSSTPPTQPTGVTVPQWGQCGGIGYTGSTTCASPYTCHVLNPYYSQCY

TrCel7A [3] = target: T3, TrCel7A (Trichoderma reesei, UniProt P62694); assay: inhibition of pNPC hydrolysis; details: 1 mM pNPC, 1.45 µM enzyme, pH 5.0, 50 °C, 20 min
T3 sequence (P62694 18-513): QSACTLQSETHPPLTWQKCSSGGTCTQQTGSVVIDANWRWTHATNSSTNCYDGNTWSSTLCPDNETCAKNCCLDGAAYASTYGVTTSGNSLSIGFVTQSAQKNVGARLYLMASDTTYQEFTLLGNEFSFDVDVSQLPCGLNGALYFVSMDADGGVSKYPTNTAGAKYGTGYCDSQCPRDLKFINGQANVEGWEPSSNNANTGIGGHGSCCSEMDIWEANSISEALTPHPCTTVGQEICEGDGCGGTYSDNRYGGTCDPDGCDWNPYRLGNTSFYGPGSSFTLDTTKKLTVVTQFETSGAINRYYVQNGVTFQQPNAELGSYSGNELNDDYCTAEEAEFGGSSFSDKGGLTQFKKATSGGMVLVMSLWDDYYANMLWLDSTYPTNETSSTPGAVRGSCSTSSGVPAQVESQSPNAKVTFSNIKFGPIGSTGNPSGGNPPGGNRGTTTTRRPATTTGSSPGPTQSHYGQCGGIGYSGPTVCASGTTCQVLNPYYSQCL

PcCel7C [4] = target: T2, PcCel7C; assay: inhibition of pNPC hydrolysis; details: 1 mM pNPC, 1.45 µM enzyme, pH 5.0, 50 °C, 20 min
PcCel7D [5] = target: T1, PcCel7D; assay: inhibition of pNPC hydrolysis; details: 1 mM pNPC, 1.45 µM enzyme, pH 5.0, 50 °C, 20 min
PcCel7C [6] = target: T2, PcCel7C; assay: PASC hydrolysis, reducing sugar; details: PASC 10 g/L, 0.2 µM enzyme, pH 5.0, 50 °C, 60 min; may be deactivation; remark: listed apart in the source
PcCel7D [7] = target: T1, PcCel7D; assay: PASC hydrolysis, reducing sugar; details: PASC 10 g/L, 0.2 µM enzyme, pH 5.0, 50 °C, 60 min; may be deactivation; remark: listed apart in the source
TrCel7A [8] = target: T3, TrCel7A; assay: inhibition of pNPC hydrolysis; details: 1 mM pNPC, 1.45 µM enzyme, pH 5.0, 50 °C, 20 min; product inhibition
PcCel7C [9] = target: T2, PcCel7C; assay: inhibition of pNPC hydrolysis; details: 1 mM pNPC, 1.45 µM enzyme, pH 5.0, 50 °C, 20 min; product inhibition
PcCel7D [10] = target: T1, PcCel7D; assay: inhibition of pNPC hydrolysis; details: 1 mM pNPC, 1.45 µM enzyme, pH 5.0, 50 °C, 20 min; product inhibition

Structure (SMILES): O=C(O)c1ccc(O)cc1 [compound 3, 4-hydroxybenzoic acid]
% decrease in activity at 30 mM (PcCel7D [1]): the activity of PcCBHs exhibited susceptibility to the same LRCs, following a comparable pattern
% decrease in activity at 30 mM (PcCel7C [2]): the activity of PcCBHs exhibited susceptibility to the same LRCs, following a comparable pattern

% loss of activity at 1.5 M (TrCel7A [3]): 30%
% loss of activity at 1.5 M (PcCel7C [4]): 67%
% loss of activity at 1.5 M (PcCel7D [5]): 67%
Structure (SMILES): OC[C@H]1OC(O)[C@H](O)[C@@H](O)[C@@H]1O (stereo partly shown) [glucose]

% reduction in activity at 30 mM (PcCel7C [6]): 87%
% reduction in activity at 30 mM (PcCel7D [7]): 67%
Structure (SMILES): O=C(O)c1c(O)cccc1O [compound 12, 2,6-dihydroxybenzoic acid]

% reduction in activity at 1 mM (TrCel7A [8]): ~ 50%
% reduction in activity at 1 mM (PcCel7C [9]): ~ 50%
% reduction in activity at 1 mM (PcCel7D [10]): ~ 50%
Structure (SMILES): OC[C@H]1O[C@@H](O[C@H]2[C@H](O)[C@@H](O)C(O)O[C@@H]2CO)[C@H](O)[C@@H](O)[C@@H]1O (stereo partly shown) [cellobiose]
